Entries after “also recorded” stand apart in the source; their conditions may differ.
How the values were obtained:
[1] = tested on: vascular progenitor cells; assay: Local delivery of dyes by porous balloon into balloon-injured coronary artery; count of migrated vascular progenitor cells; type: in vivo, beagle dogs; details: dogs
Procedure: Adult beagle dogs of either sexes weighing from 7 to 12 kg were anesthetized with pentobarbital sodium (25-30 mg/kg, i.v.) and the trachea was intubated for artificial respiration with air. The right side of the neck was longitudinally incised to expose the right common carotid artery and an 8 F sheath was introduced, through which an 8F guiding catheter was introduced into the left coronary ostium for angiography. After angiography, a balloon catheter (2.5 mm×20 mm) was introduced through the guiding catheter into the middle to distal segment of either the anterior descending or circumflex artery. Then, the balloon was inflated at 9 atms to
dilate the segment to induced disruption of the endothelium and internal elastic lamina. The balloon catheter was replaced by a porous balloon catheter (3 mm×20 mm) with multiple pores in the balloon (Clinical Supply Co, Gifu, Japan) for local delivery of dyes. Thereafter, 0.2 ml of 5% Evans blue saline solution was injected through the porous balloon into the dilated segment at 3 atms in 6 dogs and 0.5 ml of 5% Ethidium bromide saline solution
was injected similarly in 5 dogs. […] The dilated coronary segment and its surrounding tissues were removed and sliced, vascular progenitor cells were stained with beta-smooth muscle actin antibody (DAKO EPOS, Glostrup, Denmark) and the number of vascular progenitor cells/250×250 μm^2 was counted.

[2] = tested on: vascular progenitor cells; assay: Implantation of dye-eluting stents into canine coronary artery (percentage stenosis, angioscopy, progenitor cell count); type: in vivo, beagle dogs; details: for Number of cells (250 × 250 μm^2), Adventitia / Number of cells (250 × 250 μm^2), Intima / Number of cells (250 × 250 μm^2), Media: dye-eluting stent, stented coronary segment, one month after implantation
Procedure: Beagle dogs of either sex was anesthetized with pentobarbital sodium (25 mg/kg, i.v.) and trachea was intubated for artificial respiration with air. The right side of the neck was incised longitudinally to expose right common carotid artery. An 8F sheath was introduced into the artery through which an 8F guiding catheter was introduced into the left coronary artery. After coronary angiography, a balloon catheter clinically used for PTCA was introduced to dilate anterior descending artery. Then, a balloon catheter with a dye-eluting stent on it was introduced into the dilated segment of left anterior descending artery and it was inflated at 9 atms to implant the stent. After recovery from anesthesia, the dogs were cared according the guideline of Jikei University School of Medicine. One month later, the dogs were anesthetized again and coronary angiography and angioscopy (Uchida Y: Coronary Angioscopy, Futura Publishing Co, NY, 2000) were performed to examine the changes in the stented coronary segment. […] Thereafter, the dogs were sacrificed with intracoronary pentobarbital and the heart was removed. The heart was fixed with 10% hormaldehyde solution for microscopic examination.
The coronary angiograms were used for calibration of the percentage stenosis, namely (diameter before stent implantation-minimum luminal diameter/diameter before stent implantation)×100 of the narrowest portion (minimum luminal diameter) in the stent and was compared. Student's t test was used for statistical analysis and when P<0.05, the value was considered significant.
The stented coronary segment was removed and cut into slice in 5 μm in thickness. The slices were stained with beta-actin antibody and the number of vascular progenitor cells per unit area was counted and was compared between the dye and control groups.

[3] = tested on: vascular progenitor cells; assay: Grafting of dye-eluting artificial grafts to canine common carotid artery (percentage stenosis, progenitor cell count); type: in vivo, beagle dogs; details: dye-eluting artificial graft, 3 months after grafting
From the text: In anesthetized beagle dogs, the bilateral sides of the neck were incised to expose both right and left common carotid arteries. An 8 F sheath was introduced into the right femoral artery through which a 8 F catheter was introduced into the aortic arch for angiography of the carotid arteries. A dye-eluting artificial graft was sutured to the common carotid arteries in side to end fashion to make a shunt between the right and left common carotid arteries. Then, a segment of right carotid artery proximal to and that of left distal to anastomoses were ligatured. Thus, the blood drained from the left to the right common carotid artery. Similarly in other group, grafts coated with bionate or Sanpren without dye were sutured to the arteries as control group. The dogs were cared for 3 months according to the guideline and angiography was repeated. Percentage stenosis of the sutured portion was compared between the dye and control groups. After cardiac arrest as mentioned above, the grafts and arteries were removed and were used for microscopic examinations.

[4] = Preliminary in vitro elution of dye from double-layer coated stent immersed in water; type: physicochemical
Procedure: a) A soft polycarbonate urethane with risin bionate (Bionate 80A, Polimertech, USA) was used. Evans blue powder was dissolved in the bionate to make 20% Evans blue solution. A commercially available coronary stent (NIR stent, 3 mm×12 mm or Palmatz-Schatz stent, 3 mm×12 mm) was immersed into the solution for 10 min to form slowly eluting inner layer. Then, the stent was dried at room temperature. Evans blue powder was dissolved in distilled water to make 20% solution. The same stent was immersed into the solution for 10 min to make rapidly eluting outer layer. The stent was dried at room temperature. Then, the stent was sterilized with ethylene oxide gas. In the preliminary experiment in vitro, Evans blue began to elute from the outer layer immediately after and ceased to elute within 60 min after immersion into water.

Compound	Migration of circulating vascular progenitor cells into the injured coronary wall [1]	Percentage stenosis of the stented coronary segments ([2]; angiography, 4 weeks after implantation of dye-coated stents, vs stents without dye)	Angioscopic appearance of stenosis of the stented coronary segment ([2]; angioscopy, 4 weeks after stent implantation)	Number of cells (250 × 250 μm^2), Adventitia [2]	Number of cells (250 × 250 μm^2), Intima [2]	Number of cells (250 × 250 μm^2), Media [2]	Number of cells (250 × 250 μm^2), vascular progenitor cells at the anastomosed portion of the common carotid artery [3]	Time at which elution from the outer (rapidly eluting) layer ceased ([4]; stent coated from 20% aqueous dye solution, after immersion into water)	Time at which elution from the inner (slowly eluting) layer began ([4]; stent coated from 20% dye in Bionate 80A, after immersion into water)	Duration of elution from the inner (slowly eluting) layer ([4]; stent coated from 20% dye in Bionate 80A, immersion into water)
Cc1cc(-c2ccc(/N=N/c3ccc4c(S(=O)(=O)O)cc(S(=O)(=O)O)c(N)c4c3O)c(C)c2)ccc1/N=N/c1ccc2c(S(=O)(=O)O)cc(S(=O)(=O)O)c(N)c2c1O [Evans blue]	no migration of the cells was observed; also recorded: inhibit migration	significantly smaller	stenosis was mild	17.0 ± 7.1 /250 × 250 μm^2	7.1 ± 3.2 /250 × 250 μm^2	8.0 ± 4.0 /250 × 250 μm^2	13.4 ± 4.0 /250 × 250 μm^2	≤ 60 min	60 min	up to one month
CC[n+]1c(-c2ccccc2)c2cc(N)ccc2c2ccc(N)cc21 [Ethidium bromide]	–	–	–	21.3 ± 9.9 /250 × 250 μm^2	8.3 ± 3.7 /250 × 250 μm^2	9.6 ± 5.0 /250 × 250 μm^2	11.1 ± 3.1 /250 × 250 μm^2	–	–	–

— patent US20030053952A1, “Therapeutic tool for vascular diseases” (Yasumi UCHIDA, priority 2001, published 2003)
